B1: ^35 S-GAD65: 35S-labeled rat GAD65 produced in a bacterial expression system (protein, UniProt Q05683 1-585, looked up)
Glutamate decarboxylase 2: MASPGSGFWSFGSEDGSGDPENPGTARAWCQVAQKFTGGIGNKLCALLYGDSEKPAESGGSVTSRAATRKVACTCDQKPCSCPKGDVNYALLHATDLLPACEGERPTLAFLQDVMNILLQYVVKSFDRSTKVIDFHYPNELLQEYNWELADQPQNLEEILTHCQTTLKYAIKTGHPRYFNQLSTGLDMVGLAADWLTSTANTNMFTYEIAPVFVLLEYVTLKKMREIIGWPGGSGDGIFSPGGAISNMYAMLIARYKMFPEVKEKGMAAVPRLIAFTSEHSHFSLKKGAAALGIGTDSVILIKCDERGKMIPSDLERRILEVKQKGFVPFLVSATAGTTVYGAFDPLLAVADICKKYKIWMHVDAAWGGGLLMSRKHKWKLNGVERANSVTWNPHKMMGVPLQCSALLVREEGLMQSCNQMHASYLFQQDKHYDLSYDTGDKALQCGRHVDVFKLWLMWRAKGTTGFEAHIDKCLELAEYLYNIIKNREGYEMVFDGKPQHTNVCFWFVPPSLRVLEDNEERMSRLSKVAPVIKARMMEYGTTMVSYQPLGDKVNFFRMVISNPAATHQDIDFLIEEIERLGQDL
modifications: 35S label
notes: 35S-labeled rat GAD65 produced in a bacterial expression system

Assays:
[1] = tested on: IDDM associated autoantibodies; test: ELISA of patient and control sera on plate-bound human GAD65 peptides; type: binding; conditions: none of the control sera
Source text: A set of peptides (20-23 amino acids in length, with 5 aa overlaps) that span the human GAD65 molecule were synthesized to determine whether sera from most individuals at risk, pre-IDDM and with IDDM (in contrast to healthy controls) do in fact produce antibodies that differentially recognize GAD65 linear epitopes distributed throughout the molecule.
Patient sera and most control sera were those used in a previous study (Kaufman, et al., J. Clin. Investigation, supra) All samples were coded and tested in a blind manner. Peptides were synthesized using an automatic instrument (Applied Biosystems, Foster City, Calif.) and standard conditions. Peptides were dissolved in 60 mM sodium bicarbonate buffer (pH 9.6) at 20 ug/ml and 100 ul of each was added to duplicated wells of a 96 well Nunc-Immuno Plate. Peptides were allowed to bind at 4° C. overnight. The plates were then washed three times with PBS+0.1% Tween 20 (wash buffer), after which the plates were pre-absorbed with 3% BSA in sodium bicarbonate buffer for 0.5 hours at 37° C., or at room temperature overnight. The plates were then washed 5 times with the above wash buffer. 100 ul of serum at a 1/300 dilution in PBS+0.1% Tween 20 and 1% BSA was added to each well and antibodies were allowed to bind for 1 hour at 37° C. […] The color development was measured at 410 nm using an ELISA plate reader (ICN, Biomedicals, Costa Mesa, Calif.). […]

autoantibodies to GAD65 = test: Immunoprecipitation of 35S-GAD65 by sera drawn before IDDM onset; type: binding, human; conditions: sera drawn 3 to 66 months before IDDM onset
Description: 5. Islet Cell Extractions and Immunoprecipitations. Islet cells were extracted as previously described by Atkinson, et al. (Lancet, 335:1357-1360, 1990) with the following modifications. […] Following another incubation with protein A Sepharose CL-4B (1 h, 4° C.), the complexes were then washed 5 times with 50 mM Tris HCL (pH 7.4) with 0.1% SDS, 1.0% Triton X-114, and 2 mM EDTA, and then washed again one time in double distilled water. The protein A Sepharose CL-4B was then boiled in Laemmli sample buffer (Laemmli, Nature, 227:680-685, 1970), and the samples were subjected to SDS-PAGE and fluororadiography (Kodak, X-omat AR5) using Enhance (New England Nuclear). Alternatively, the autoradiographs were analyzed by a BETAGEN (Boston, Mass.) analyzer. Both 64 KA positive and negative sera were used in each assay, to serve as interassay controls. All fluororadiographs were analyzed and rated as positive or negative after comparison with the known interassay controls.
A similar rating procedure was employed for the intensity of bands corresponding to immunoprecipitated ^35 S-GAD65 and ^35 S-GAD67.
6. Immunoprecipitations. […]
8. […] After sonication, cell debris was removed by centrifugation and protein concentration was measured (Bradford, Anal.Biochem., 72:248, […]) in the supernatant (supernatant was stored in aliquots at -70° C.).

Molecule	share of patients recognizing the peptide [1]	specimens immunoreactive with the labeled protein (autoantibodies to GAD65)
KPCSCSKVDVNYAFLHATDL [Peptide 6]	25-37%	–
B1	–	9 out of 12

From patent US5998366A, “Method for ameliorating glutamic acid decarboxylase associated autoimmune disorders” (The Regents of the University of California, priority 1997, dated 1999)
